For ten compounds, TGI results are on record in PubChem BioAssay (NCI).

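48-hour exposure; five concentrations; linearly interpolated endpoints. Definition used: TGI = concentration required for complete inhibition of growth.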

Test systems include NCI-H522 lung; SN12C renal; OVCAR-8 ovarian; U251 CNS; DU-145 prostate; EKVX NSCLC; SNB-19 CNS; SW-620 colon; KM12 colon; UO-31 renal; HT29 colon.
Common to all, as to test: DTP human tumour cell line panel, 48 h

As to `COc1cc2c[n+](C)c3c4cc(OC)c(OCc5ccccc5)cc4c(OCc4ccccc4)cc3c2cc1OC`, the TGI with NCI-H522 lung is 3.4 µM; with SN12C renal, 33.2 µM; in the assay with OVCAR-8 ovarian, 19.6 µM; in the assay with U251 CNS it was 12.9 µM; with DU-145 prostate, 45.7 µM; with EKVX NSCLC it was more than 100 µM. Moreover, the TGI in the assay with SNB-19 CNS is 15.2 µM; with SW-620 colon it was 20.5 µM; in the assay on KM12 colon, 23.8 µM; with UO-31 renal, more than 100 µM; with HT29 colon, 15.5 µM.

With `CSc1ncc2c(n1)-c1ccccc1OC2`, the TGI in the assay with NCI-H522 lung, in the assay on SN12C renal, in the assay on OVCAR-8 ovarian, in the assay with U251 CNS, in the assay on DU-145 prostate and with EKVX NSCLC was more than 100 µM throughout. For the same compound, the TGI with SNB-19 CNS, in the assay on SW-620 colon, in the assay on KM12 colon, in the assay with UO-31 renal and with HT29 colon was more than 100 µM throughout.

`C(=C/c1nnnn1-c1ccccc1)/Nc1ccccc1`: the TGI in the assay with NCI-H522 lung is 81.8 µM; with SN12C renal it was more than 100 µM; in the assay on OVCAR-8 ovarian it was more than 100 µM; in the assay on U251 CNS, more than 100 µM; with DU-145 prostate it was more than 100 µM; in the assay on EKVX NSCLC, more than 100 µM. Also, the total growth inhibition concentration (TGI) was 96.8 µM in the assay on SNB-19 CNS; more than 100 µM with SW-620 colon; more than 100 µM with KM12 colon; 65.9 µM in the assay with UO-31 renal; more than 100 µM in the assay with HT29 colon.

Take `O=C(NC1C/C(=N/O)c2c(Br)sc(Br)c21)C(F)(F)F` (stereo not given): the TGI was more than 100 µM with NCI-H522 lung; 56.1 µM in the assay with SN12C renal; 63.2 µM in the assay on OVCAR-8 ovarian; 39.2 µM in the assay on U251 CNS; more than 100 µM in the assay with DU-145 prostate; more than 100 µM in the assay on EKVX NSCLC. Also, the total growth inhibition concentration (TGI) in the assay on SNB-19 CNS was more than 100 µM; in the assay with SW-620 colon it was more than 100 µM; in the assay on KM12 colon, more than 100 µM; with UO-31 renal, 98.5 µM; in the assay with HT29 colon, more than 100 µM.

Turning to `CCOS(=O)(=O)c1ccc(-c2c3nc(c(-c4ccc(S(=O)(=O)OCC)cc4)c4ccc([nH]4)c(-c4ccc(S(=O)(=O)OCC)cc4)c4nc(c(-c5ccc(S(=O)(=O)OCC)cc5)c5ccc2[nH]5)C=C4)C=C3)cc1`, the concentration for total growth inhibition (TGI) with NCI-H522 lung, in the assay with SN12C renal, with OVCAR-8 ovarian, with U251 CNS, with DU-145 prostate and with EKVX NSCLC was more than 31.6 µM in each case. The TGI was more than 31.6 µM in the assay with SNB-19 CNS; more than 31.6 µM in the assay with SW-620 colon; more than 31.6 µM in the assay on KM12 colon; more than 31.6 µM with UO-31 renal; more than 100 µM in the assay on HT29 colon.

As for `COC(=O)c1ccccc1C1CN=NC12Cc1ccc3c(c1C2=O)CCC3` (stereo not given), the TGI with NCI-H522 lung is 54.7 µM; with SN12C renal, more than 100 µM; with OVCAR-8 ovarian it was more than 100 µM; in the assay on U251 CNS it was more than 100 µM; with DU-145 prostate it was more than 100 µM; in the assay with EKVX NSCLC, more than 100 µM. The total growth inhibition concentration (TGI) with SNB-19 CNS, in the assay on SW-620 colon, with KM12 colon, with UO-31 renal and with HT29 colon was more than 100 µM each time.

With `CCC(Nc1ncnc2nc[nH]c12)C(=O)O` (stereo not given), the concentration for total growth inhibition (TGI) with NCI-H522 lung, in the assay on SN12C renal, with OVCAR-8 ovarian, in the assay with U251 CNS, with DU-145 prostate and with EKVX NSCLC was more than 100 µM each time. For the same compound, the TGI in the assay on SNB-19 CNS, in the assay on SW-620 colon, in the assay with KM12 colon, in the assay with UO-31 renal and in the assay on HT29 colon was more than 100 µM each time.

In the case of `O=C(NC1=C(Cl)C(=O)c2ccccc2C1=O)C(=O)C(C(=O)c1ccc2ccccc2c1)C1OC(=O)c2ccccc21` (stereo not given), the concentration for total growth inhibition (TGI) with NCI-H522 lung turned out to be 12.1 µM; with SN12C renal, 16.3 µM; in the assay with OVCAR-8 ovarian it was 24.5 µM; with U251 CNS it was 18.5 µM; in the assay with DU-145 prostate, 23.9 µM; in the assay with EKVX NSCLC it was 24.7 µM. Besides, the concentration for total growth inhibition (TGI) was 19 µM with SNB-19 CNS; 28.2 µM with SW-620 colon; 13.7 µM in the assay with KM12 colon; 29.4 µM with UO-31 renal; 17.7 µM with HT29 colon.

As for `Cc1nc2ccc(NC3OCC(O)C(O)C3O)cc2c(=O)n1-c1ccccc1` (stereo not given), the TGI in the assay on NCI-H522 lung, in the assay on SN12C renal, with OVCAR-8 ovarian, with U251 CNS, with DU-145 prostate and with EKVX NSCLC was more than 100 µM throughout. The TGI in the assay on SNB-19 CNS, with SW-620 colon, in the assay on KM12 colon, with UO-31 renal and in the assay with HT29 colon was more than 100 µM in each case.

As for `COc1cc(/C=C/C(=N\NC(N)=S)c2sc(NNC(C)=O)nc2C)ccc1O`, the TGI in the assay on NCI-H522 lung, in the assay on SN12C renal, in the assay on OVCAR-8 ovarian, with U251 CNS, with DU-145 prostate and with EKVX NSCLC was more than 100 µM each time. Also, the TGI with SNB-19 CNS, in the assay with SW-620 colon, in the assay on KM12 colon, in the assay on UO-31 renal and in the assay with HT29 colon was more than 100 µM throughout.
